According to patent US9340590B2 (priority 2011, dated 2016):
pIC50: −log10 of the molar value. Where two headings read alike, the source gives them in different places. Positions of bridges follow the written chain, without caps; N, C: chain ends. Residues, ends and D or L forms follow the SMILES beside them.

What was measured:
hNav1.3 = hNav1.3 (Homo sapiens, UniProt Q9NY46); assay: cell-based; details: IonWorks Quattro, read-out: IWQ Use Nav1.3
hNav1.5 = hNav1.5 (Homo sapiens, UniProt Q14524); assay: cell-based
[1] = clamped to −110 mV, depolarized to −10 mV, 5 min after compound, n=2
[2] = IonWorks Quattro, clamped to −110 mV, depolarized to −10 mV, 5 min after compound, n=2, read-out: IWQ Use Nav1.5

Sequence of hNav1.5 (Q14524 whole entry, looked up): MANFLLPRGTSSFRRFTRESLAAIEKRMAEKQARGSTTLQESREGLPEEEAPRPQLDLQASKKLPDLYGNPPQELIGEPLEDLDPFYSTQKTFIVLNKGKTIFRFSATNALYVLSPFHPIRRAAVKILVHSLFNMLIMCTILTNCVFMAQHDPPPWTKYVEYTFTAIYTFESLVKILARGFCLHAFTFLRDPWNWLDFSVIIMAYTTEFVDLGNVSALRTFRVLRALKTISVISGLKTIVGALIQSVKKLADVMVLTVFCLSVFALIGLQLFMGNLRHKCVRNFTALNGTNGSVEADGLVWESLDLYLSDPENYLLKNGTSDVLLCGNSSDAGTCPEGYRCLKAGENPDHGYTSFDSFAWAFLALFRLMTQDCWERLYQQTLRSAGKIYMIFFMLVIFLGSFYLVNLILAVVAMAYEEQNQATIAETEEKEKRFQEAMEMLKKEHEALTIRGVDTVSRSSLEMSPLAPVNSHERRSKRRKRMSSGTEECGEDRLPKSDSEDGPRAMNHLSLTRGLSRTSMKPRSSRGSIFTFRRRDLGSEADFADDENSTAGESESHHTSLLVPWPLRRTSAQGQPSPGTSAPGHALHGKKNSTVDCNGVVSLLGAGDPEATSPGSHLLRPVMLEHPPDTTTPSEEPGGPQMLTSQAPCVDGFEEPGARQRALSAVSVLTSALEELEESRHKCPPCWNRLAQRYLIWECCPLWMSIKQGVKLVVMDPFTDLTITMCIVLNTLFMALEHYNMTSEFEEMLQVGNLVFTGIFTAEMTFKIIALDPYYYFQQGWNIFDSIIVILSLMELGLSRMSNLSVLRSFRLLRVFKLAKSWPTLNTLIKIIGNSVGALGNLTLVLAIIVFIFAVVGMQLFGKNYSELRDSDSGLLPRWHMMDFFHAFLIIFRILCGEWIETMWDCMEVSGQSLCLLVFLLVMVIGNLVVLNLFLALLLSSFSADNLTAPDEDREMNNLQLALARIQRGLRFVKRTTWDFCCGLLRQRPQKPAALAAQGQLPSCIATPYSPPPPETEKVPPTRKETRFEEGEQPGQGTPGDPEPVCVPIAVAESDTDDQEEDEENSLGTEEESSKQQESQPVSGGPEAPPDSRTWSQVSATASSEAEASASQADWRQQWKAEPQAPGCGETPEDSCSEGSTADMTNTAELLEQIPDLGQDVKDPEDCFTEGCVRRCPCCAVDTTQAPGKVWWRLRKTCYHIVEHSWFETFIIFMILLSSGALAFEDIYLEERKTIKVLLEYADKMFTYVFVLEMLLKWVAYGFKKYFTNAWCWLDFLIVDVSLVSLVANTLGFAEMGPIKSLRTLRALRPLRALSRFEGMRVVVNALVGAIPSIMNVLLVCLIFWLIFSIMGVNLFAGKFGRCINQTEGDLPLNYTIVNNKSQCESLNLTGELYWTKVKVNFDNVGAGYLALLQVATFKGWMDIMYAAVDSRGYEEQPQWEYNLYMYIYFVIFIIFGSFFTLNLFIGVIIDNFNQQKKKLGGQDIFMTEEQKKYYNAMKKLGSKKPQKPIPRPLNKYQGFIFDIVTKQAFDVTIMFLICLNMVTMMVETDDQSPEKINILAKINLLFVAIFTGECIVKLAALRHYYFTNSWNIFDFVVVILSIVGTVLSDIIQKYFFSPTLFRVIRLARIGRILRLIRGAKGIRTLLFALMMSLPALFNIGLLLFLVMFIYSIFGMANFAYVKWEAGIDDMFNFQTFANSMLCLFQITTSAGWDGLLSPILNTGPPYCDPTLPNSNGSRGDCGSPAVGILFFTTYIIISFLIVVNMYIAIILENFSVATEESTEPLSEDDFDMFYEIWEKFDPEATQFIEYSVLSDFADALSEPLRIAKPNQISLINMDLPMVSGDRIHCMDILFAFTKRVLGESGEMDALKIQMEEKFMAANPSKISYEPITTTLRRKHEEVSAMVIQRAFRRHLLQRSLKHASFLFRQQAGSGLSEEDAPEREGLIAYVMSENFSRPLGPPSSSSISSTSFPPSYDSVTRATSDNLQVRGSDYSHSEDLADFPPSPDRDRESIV
Sequence of hNav1.3 (Q9NY46 whole entry, looked up): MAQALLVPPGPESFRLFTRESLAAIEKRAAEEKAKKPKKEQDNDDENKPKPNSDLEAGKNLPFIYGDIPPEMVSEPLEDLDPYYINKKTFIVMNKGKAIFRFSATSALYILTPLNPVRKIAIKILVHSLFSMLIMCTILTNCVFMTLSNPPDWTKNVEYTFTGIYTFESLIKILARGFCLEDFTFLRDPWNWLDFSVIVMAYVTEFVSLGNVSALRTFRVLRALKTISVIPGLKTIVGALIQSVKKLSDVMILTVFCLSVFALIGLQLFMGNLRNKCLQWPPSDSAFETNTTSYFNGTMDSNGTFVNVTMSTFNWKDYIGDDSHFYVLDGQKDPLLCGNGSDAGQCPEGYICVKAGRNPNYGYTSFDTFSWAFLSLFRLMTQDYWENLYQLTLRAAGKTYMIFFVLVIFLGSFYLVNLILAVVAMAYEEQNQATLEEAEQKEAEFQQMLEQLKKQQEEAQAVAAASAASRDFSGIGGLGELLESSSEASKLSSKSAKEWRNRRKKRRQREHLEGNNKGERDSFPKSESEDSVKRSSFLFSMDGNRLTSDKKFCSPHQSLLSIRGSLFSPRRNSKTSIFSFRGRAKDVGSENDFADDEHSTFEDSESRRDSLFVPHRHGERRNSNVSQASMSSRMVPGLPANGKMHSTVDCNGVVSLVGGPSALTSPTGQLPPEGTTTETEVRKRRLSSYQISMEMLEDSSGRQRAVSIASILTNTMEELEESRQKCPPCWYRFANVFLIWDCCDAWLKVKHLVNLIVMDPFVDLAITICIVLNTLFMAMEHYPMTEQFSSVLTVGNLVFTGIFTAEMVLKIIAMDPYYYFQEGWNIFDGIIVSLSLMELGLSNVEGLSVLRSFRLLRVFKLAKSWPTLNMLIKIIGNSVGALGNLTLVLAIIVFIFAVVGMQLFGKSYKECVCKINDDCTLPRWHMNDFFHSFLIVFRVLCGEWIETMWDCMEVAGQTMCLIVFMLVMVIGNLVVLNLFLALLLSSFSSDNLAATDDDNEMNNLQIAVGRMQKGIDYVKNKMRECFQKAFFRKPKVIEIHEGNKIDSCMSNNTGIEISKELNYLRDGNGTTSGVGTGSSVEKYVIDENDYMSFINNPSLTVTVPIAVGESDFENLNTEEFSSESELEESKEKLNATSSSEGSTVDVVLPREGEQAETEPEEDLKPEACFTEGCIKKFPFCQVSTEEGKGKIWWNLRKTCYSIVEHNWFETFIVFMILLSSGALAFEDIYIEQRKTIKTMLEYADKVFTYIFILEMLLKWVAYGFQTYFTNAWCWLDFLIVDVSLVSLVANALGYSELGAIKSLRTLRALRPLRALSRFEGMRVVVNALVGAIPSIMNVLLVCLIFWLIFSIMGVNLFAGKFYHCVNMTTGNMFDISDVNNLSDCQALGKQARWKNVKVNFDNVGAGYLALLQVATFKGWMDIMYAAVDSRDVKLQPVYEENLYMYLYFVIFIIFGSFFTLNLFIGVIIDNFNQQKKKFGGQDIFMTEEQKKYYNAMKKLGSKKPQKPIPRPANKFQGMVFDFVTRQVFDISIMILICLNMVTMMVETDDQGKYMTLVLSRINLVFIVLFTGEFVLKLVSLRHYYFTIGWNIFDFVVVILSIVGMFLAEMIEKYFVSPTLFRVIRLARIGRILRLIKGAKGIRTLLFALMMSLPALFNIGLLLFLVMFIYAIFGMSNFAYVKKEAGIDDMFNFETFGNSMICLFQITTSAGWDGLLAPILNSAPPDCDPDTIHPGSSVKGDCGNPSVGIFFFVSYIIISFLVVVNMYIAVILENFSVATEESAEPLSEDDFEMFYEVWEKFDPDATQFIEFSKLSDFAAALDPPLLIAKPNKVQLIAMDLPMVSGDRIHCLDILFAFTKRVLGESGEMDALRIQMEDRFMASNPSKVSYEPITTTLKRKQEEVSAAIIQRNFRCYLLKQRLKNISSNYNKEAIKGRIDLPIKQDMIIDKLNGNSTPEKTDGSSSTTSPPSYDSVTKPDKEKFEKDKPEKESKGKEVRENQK

CC[C@H](C)[C@@H]1NC(=O)[C@@H]2CSSC[C@@H]3NC(=O)[C@H](C(C)C)NC(=O)[C@H](CC(C)C)NC(=O)[C@H](CC(N)=O)NC(=O)[C@@H]4CCCN4C(=O)[C@H](CCCNC(=N)N)NC(=O)[C@H](CSSC[C@H](NC(=O)[C@@H](N)CCC(=O)O)C(=O)N[C@@H](CC(C)C)C(=O)NCC(=O)N[C@@H](Cc4ccccc4)C(=O)N[C@@H](CCSC)C(=O)N[C@@H](CCCNC(=N)N)C(=O)N[C@@H](CCCCN)C(=O)N2)NC(=O)[C@H](CSSC[C@@H](C(=O)N[C@@H](CCCCN)C(=O)N[C@@H](Cc2ccc(O)cc2)C(=O)N[C@H](C(=O)N[C@@H](Cc2ccccc2)C(N)=O)C(C)C)NC(=O)[C@H](Cc2c[nH]c4ccccc24)NC(=O)[C@H](CCCCN)NC(=O)[C@H](Cc2cnc[nH]2)NC(=O)[C@H]([C@@H](C)O)NC(=O)[C@H](CCCNC(=N)N)NC(=O)[C@H](CO)NC3=O)NC(=O)[C@H](CCCCN)NC(=O)[C@H](CC(=O)O)NC(=O)[C@H](CC(N)=O)NC(=O)[C@H](CC(=O)O)NC(=O)[C@@H]2CCCN2C1=O [SEQ ID NO: 18] (H-ECLGFMRKCIPDNDKCCRPNLVCSRTHKWCKYVF-NH2; disulfide 2-17, 9-23, 16-30)
pIC50 (hNav1.3; [1]): 6.82 | pIC50 (hNav1.5; [2]): 4.85

CC[C@H](C)[C@@H]1NC(=O)[C@@H]2CSSC[C@@H]3NC(=O)[C@H](C(C)C)NC(=O)[C@H](CC(C)C)NC(=O)[C@H](CC(N)=O)NC(=O)[C@@H]4CCCN4C(=O)[C@H](CCCNC(=N)N)NC(=O)[C@H](CSSC[C@H](NC(=O)[C@H](C)N)C(=O)N[C@@H](CC(C)C)C(=O)NCC(=O)N[C@@H](Cc4ccccc4)C(=O)N[C@@H](CCSC)C(=O)N[C@@H](CCCNC(=N)N)C(=O)N[C@@H](CCCCN)C(=O)N2)NC(=O)[C@H](CSSC[C@@H](C(=O)N[C@@H](CCCCN)C(=O)N[C@@H](Cc2ccc(O)cc2)C(=O)N[C@H](C(=O)N[C@@H](Cc2ccccc2)C(N)=O)C(C)C)NC(=O)[C@H](Cc2c[nH]c4ccccc24)NC(=O)[C@H](CCCCN)NC(=O)[C@H](Cc2cnc[nH]2)NC(=O)[C@H]([C@@H](C)O)NC(=O)[C@H](CCCNC(=N)N)NC(=O)[C@H](CO)NC3=O)NC(=O)[C@H](CCCCN)NC(=O)[C@H](CC(=O)O)NC(=O)[C@H](CC(N)=O)NC(=O)[C@H](CC(=O)O)NC(=O)[C@@H]2CCCN2C1=O [SEQ ID NO: 20] (H-ACLGFMRKCIPDNDKCCRPNLVCSRTHKWCKYVF-NH2; disulfide 2-17, 9-23, 16-30)
pIC50 (hNav1.3; [1]): 7.10 | pIC50 (hNav1.5; [2]): 5.01

CC[C@H](C)[C@@H]1NC(=O)[C@@H]2CSSC[C@@H]3NC(=O)[C@H](C(C)C)NC(=O)[C@H](CC(C)C)NC(=O)[C@H](CC(N)=O)NC(=O)[C@@H]4CCCN4C(=O)[C@H](CCCNC(=N)N)NC(=O)[C@H](CSSC[C@H](NC(=O)[C@@H](N)CC(=O)O)C(=O)N[C@@H](CC(C)C)C(=O)N[C@@H](CCC(=O)O)C(=O)N[C@@H](Cc4ccccc4)C(=O)N[C@@H](CCSC)C(=O)N[C@@H](CCCNC(=N)N)C(=O)N[C@@H](CCCCN)C(=O)N2)NC(=O)[C@H](CSSC[C@@H](C(=O)N[C@@H](CCCCN)C(=O)N[C@@H](Cc2ccc(O)cc2)C(=O)N[C@H](C(=O)N[C@@H](Cc2ccccc2)C(N)=O)C(C)C)NC(=O)[C@H](Cc2c[nH]c4ccccc24)NC(=O)[C@H](CCCCN)NC(=O)[C@H](Cc2cnc[nH]2)NC(=O)[C@H]([C@@H](C)O)NC(=O)[C@H](CCCNC(=N)N)NC(=O)[C@H](CO)NC3=O)NC(=O)[C@H](CCCCN)NC(=O)[C@H](CC(=O)O)NC(=O)[C@H](CC(N)=O)NC(=O)[C@H](CC(=O)O)NC(=O)[C@@H]2CCCN2C1=O [SEQ ID NO: 24] (H-DCLEFMRKCIPDNDKCCRPNLVCSRTHKWCKYVF-NH2; disulfide 2-17, 9-23, 16-30)
pIC50 (hNav1.3; [1]): 5.88 | pIC50 (hNav1.5; IWQ Use Nav1.5): 4.75

CC[C@H](C)[C@@H]1NC(=O)[C@@H]2CSSC[C@@H]3NC(=O)[C@H](C(C)C)NC(=O)[C@H](CC(C)C)NC(=O)[C@H](CC(N)=O)NC(=O)[C@@H]4CCCN4C(=O)[C@H](CCCNC(=N)N)NC(=O)[C@H](CSSC[C@H](NC(=O)[C@@H](N)CC(=O)O)C(=O)N[C@@H](CC(C)C)C(=O)NCC(=O)N[C@@H](Cc4ccccc4)C(=O)N[C@@H](CCSC)C(=O)N[C@@H](CCCNC(=N)N)C(=O)N[C@@H](CCCCN)C(=O)N2)NC(=O)[C@H](CSSC[C@@H](C(=O)N[C@@H](CCCCN)C(=O)N[C@@H](Cc2ccc(O)cc2)C(=O)N[C@@H](CCC(=O)O)C(=O)N[C@@H](Cc2ccccc2)C(N)=O)NC(=O)[C@H](Cc2c[nH]c4ccccc24)NC(=O)[C@H](CCCCN)NC(=O)[C@H](Cc2cnc[nH]2)NC(=O)[C@H]([C@@H](C)O)NC(=O)[C@H](CCCNC(=N)N)NC(=O)[C@H](CO)NC3=O)NC(=O)[C@H](CCCCN)NC(=O)[C@H](CC(=O)O)NC(=O)[C@H](CC(N)=O)NC(=O)[C@H](CC(=O)O)NC(=O)[C@@H]2CCCN2C1=O [SEQ ID NO: 33, [Glu33]GpTx-1] (H-DCLGFMRKCIPDNDKCCRPNLVCSRTHKWCKYEF-NH2; disulfide 2-17, 9-23, 16-30)
pIC50 (hNav1.3; Table 26, use, […]): 6.41 | pIC50 (hNav1.5; Table 26, IonWorks Quattro, use, […], read-out: IWQ Use Nav1.5): 4.94

CC[C@H](C)[C@@H]1NC(=O)[C@@H]2CSSC[C@@H]3NC(=O)[C@H](C(C)C)NC(=O)[C@H](CC(C)C)NC(=O)[C@H](CC(N)=O)NC(=O)[C@@H]4CCCN4C(=O)[C@H](CCCNC(=N)N)NC(=O)[C@H](CSSC[C@H](NC(=O)[C@@H](N)CCCCN)C(=O)N[C@@H](CC(C)C)C(=O)NCC(=O)N[C@@H](Cc4ccccc4)C(=O)N[C@@H](CCSC)C(=O)N[C@@H](CCCNC(=N)N)C(=O)N[C@@H](CCCCN)C(=O)N2)NC(=O)[C@H](CSSC[C@@H](C(=O)N[C@@H](CCCCN)C(=O)N[C@@H](Cc2ccc(O)cc2)C(=O)N[C@H](C(=O)N[C@@H](Cc2ccccc2)C(N)=O)C(C)C)NC(=O)[C@H](Cc2c[nH]c4ccccc24)NC(=O)[C@H](CCCCN)NC(=O)[C@H](Cc2cnc[nH]2)NC(=O)[C@H]([C@@H](C)O)NC(=O)[C@H](CCCNC(=N)N)NC(=O)[C@H](CO)NC3=O)NC(=O)[C@H](CCCCN)NC(=O)[C@H](CC(=O)O)NC(=O)[C@H](CC(N)=O)NC(=O)[C@H](CC(=O)O)NC(=O)[C@@H]2CCCN2C1=O [SEQ ID NO: 37] (H-KCLGFMRKCIPDNDKCCRPNLVCSRTHKWCKYVF-NH2; disulfide 2-17, 9-23, 16-30)
pIC50 (hNav1.3; [1]): 7.15 | pIC50 (hNav1.5; IWQ Use Nav1.5): 5.14

CC[C@H](C)[C@@H]1NC(=O)[C@@H]2CSSC[C@@H]3NC(=O)[C@H](C(C)C)NC(=O)[C@H](CC(C)C)NC(=O)[C@H](CC(N)=O)NC(=O)[C@@H]4CCCN4C(=O)[C@H](CCCNC(=N)N)NC(=O)[C@H](CSSC[C@H](NC(=O)[C@@H](N)CCCNC(=N)N)C(=O)N[C@@H](CC(C)C)C(=O)NCC(=O)N[C@@H](Cc4ccccc4)C(=O)N[C@@H](CCSC)C(=O)N[C@@H](CCCNC(=N)N)C(=O)N[C@@H](CCCCN)C(=O)N2)NC(=O)[C@H](CSSC[C@@H](C(=O)N[C@@H](CCCCN)C(=O)N[C@@H](Cc2ccc(O)cc2)C(=O)N[C@H](C(=O)N[C@@H](Cc2ccccc2)C(N)=O)C(C)C)NC(=O)[C@H](Cc2c[nH]c4ccccc24)NC(=O)[C@H](CCCCN)NC(=O)[C@H](Cc2cnc[nH]2)NC(=O)[C@H]([C@@H](C)O)NC(=O)[C@H](CCCNC(=N)N)NC(=O)[C@H](CO)NC3=O)NC(=O)[C@H](CCCCN)NC(=O)[C@H](CC(=O)O)NC(=O)[C@H](CC(N)=O)NC(=O)[C@H](CC(=O)O)NC(=O)[C@@H]2CCCN2C1=O [SEQ ID NO: 62] (H-RCLGFMRKCIPDNDKCCRPNLVCSRTHKWCKYVF-NH2; disulfide 2-17, 9-23, 16-30)
pIC50 (hNav1.3; [1]): 7.00 | pIC50 (hNav1.5; [2]): 5.06

CC[C@H](C)[C@@H]1NC(=O)[C@@H]2CSSC[C@@H]3NC(=O)[C@H](C(C)C)NC(=O)[C@H](CC(C)C)NC(=O)[C@H](CC(N)=O)NC(=O)[C@@H]4CCCN4C(=O)[C@H](CCCNC(=N)N)NC(=O)[C@H](CSSC[C@H](NC(=O)[C@@H](N)CC(=O)O)C(=O)N[C@@H](CC(C)C)C(=O)NCC(=O)N[C@@H](Cc4ccccc4)C(=O)N[C@@H](CCSC)C(=O)N[C@@H](CCCNC(=N)N)C(=O)N[C@@H](CCCCN)C(=O)N2)NC(=O)[C@H](CSSC[C@@H](C(=O)N[C@@H](CCCCN)C(=O)N[C@@H](Cc2ccc(O)cc2)C(=O)N[C@H](C(=O)N[C@H](Cc2ccccc2)C(N)=O)C(C)C)NC(=O)[C@H](Cc2c[nH]c4ccccc24)NC(=O)[C@H](CCCCN)NC(=O)[C@H](Cc2c[nH]cn2)NC(=O)[C@H]([C@@H](C)O)NC(=O)[C@H](CCCNC(=N)N)NC(=O)[C@H](CO)NC3=O)NC(=O)[C@H](CCCCN)NC(=O)[C@H](CC(=O)O)NC(=O)[C@H](CC(N)=O)NC(=O)[C@H](CC(=O)O)NC(=O)[C@@H]2CCCN2C1=O [compound 404]
IC50 (hNav1.5; IWQ Use Nav1.5 (μM)): 20.7 µM

CC[C@H](C)[C@@H]1NC(=O)[C@@H]2CSSC[C@@H]3NC(=O)[C@H](C(C)C)NC(=O)[C@H](CC(C)C)NC(=O)[C@H](CC(N)=O)NC(=O)[C@@H]4CCCN4C(=O)[C@H](CCCNC(=N)N)NC(=O)[C@H](CSSC[C@H](NC(=O)[C@@H](N)CC(=O)O)C(=O)N[C@@H](CC(C)C)C(=O)NCC(=O)N[C@@H](C)C(=O)N[C@@H](CCSC)C(=O)N[C@@H](CCCNC(=N)N)C(=O)N[C@@H](CCCCN)C(=O)N2)NC(=O)[C@H](CSSC[C@@H](C(=O)N[C@@H](CCCCN)C(=O)N[C@@H](Cc2ccc(O)cc2)C(=O)N[C@H](C(=O)N[C@@H](Cc2ccccc2)C(N)=O)C(C)C)NC(=O)[C@H](Cc2c[nH]c4ccccc24)NC(=O)[C@H](CCC(=O)O)NC(=O)[C@H](Cc2c[nH]cn2)NC(=O)[C@H]([C@@H](C)O)NC(=O)[C@H](CCCNC(=N)N)NC(=O)[C@H](CO)NC3=O)NC(=O)[C@H](CCCCN)NC(=O)[C@H](CC(=O)O)NC(=O)[C@H](CC(N)=O)NC(=O)[C@H](CC(=O)O)NC(=O)[C@@H]2CCCN2C1=O [compound 691]
pIC50 (hNav1.5; IonWorks Quattro, use-dependent protocol, hNav1.5, read-out: IWQ Use Nav1.5): < 5.30
